Source: patent US8536120B2 (The Administrators of The Tulane Educational Fund, priority 2006, dated 2013)

Target: Ghrelin/GHRP/GHS Receptor (Rattus norvegicus, UniProt O08725)
Test: In vitro cell culture method: GH release from cell culture of pituitary cells, peptide alone or plus stimulator
Type: cell-based
Parameters: from cell culture of pituitary cells; endogenous in cells; host or cells: dispersed primary rat anterior pituitary cells, 4 days in culture
Details: for GH release, first line of entry (mark P + S): stimulator 1 ng/ml
Procedure: The peptides were synthesized by the solid phase method and purified by HPLC. GH was determined by Radioimmunoassay (RIA).
In vitro GH Release-Female rats of the CD-1 strain were housed in a constant temperature room at 24° C. with 14 h light and 10 h darkness. The rats were fed Purina Rat chow and water at libitum. All studies were started between 0800-1000 hours. Pituitaries of mature female Sprague Dawley rats were rapidly removed after decapitation, neurointermediate lobe discarded and then placed in a pH 7.4 buffer. The pituitaries were cut into ˜3-mm pieces and then transferred to a flask containing HEPS buffer with trypsin and incubated at 37° C. Cells were triturated several times during this period. After dispersion, the cells were collected by centrifugation, wash with DMEM and placed into culture well. Cell cultures were maintained for 4 days at 37° with 8% CO2 added to the incubator atmosphere. After 4 days in culture, cells were washed with lactated Ringer's solution adjusted to pH 7.2-7.4 and then vehicle, peptide alone or peptide plus stimulator was added to media. Incubation time was 60-120 minutes after which media was removed from each well for GH determination. The GH RIA reagents were distributed by the NIH. Control data was collected from cell cultures treated with only the corresponding vehicle in the absence of peptide or stimulator. Control stimulated data was collected from cell cultures treated with stimulator alone in the absence of any peptide.

Sequence of Ghrelin/GHRP/GHS Receptor (O08725 whole entry): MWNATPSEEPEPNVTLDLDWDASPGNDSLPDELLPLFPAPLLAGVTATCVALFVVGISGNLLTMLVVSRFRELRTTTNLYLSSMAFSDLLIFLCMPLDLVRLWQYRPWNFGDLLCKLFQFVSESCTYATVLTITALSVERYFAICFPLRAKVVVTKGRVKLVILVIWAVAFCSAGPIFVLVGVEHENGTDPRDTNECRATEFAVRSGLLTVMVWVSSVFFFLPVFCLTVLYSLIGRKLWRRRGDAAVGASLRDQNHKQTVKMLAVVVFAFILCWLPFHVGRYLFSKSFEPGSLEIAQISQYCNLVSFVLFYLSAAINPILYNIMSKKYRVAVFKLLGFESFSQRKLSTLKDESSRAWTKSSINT

SMILES	GH release, first line of entry (mark P + S) (Table 11, 10 μg/ml) [ng/mL]	GH release, second line of entry (no mark) (Table 10, 10 μg/ml) [ng/mL]	GH release, first line of entry (mark P + S) (Table 10, 10 μg/ml) [ng/mL]	GH release, second line of entry (no mark) (Table 10, 30 μg/ml) [ng/mL]	GH release, first line of entry (mark P + S) (Table 10, 30 μg/ml) [ng/mL]	other results
COc1ccccc1C1CCN(C(=O)[C@@H](Cc2c[nH]c3ccccc23)NC(=O)C(C)(C)N)CC1 [(R)—N-(3-(1H-indol-3-yl)-1-(4-(2-methoxyphenyl)piperidin-1-yl)-1-oxopropan-2-yl)-2-amino-2-methylpropanamide]	365 ± 2	–	–	–	–	GH release, second line of entry (no mark) (Table 11, 10 μg/ml): 441 ± 21 ng/mL; GH release, second line of entry (no mark) (Table 11, 30 μg/ml): 384 ± 16 ng/mL; GH release, first line of entry (mark P + S) (Table 11, 30 μg/ml): 375 ± 30 ng/mL
NCC[C@H](N)C(=O)N[C@H](COCc1ccc2ccccc2c1)C(=O)N1CCC(c2ccccc2)CC1 [(S)-2,4-diamino-N—((R)-3-(naphthalen-2-ylmethoxy)-1-oxo-1-(4-phenylpiperidin-1-yl)propan-2-yl)butanamide]	794 ± 34	–	–	–	–	GH release, second line of entry (no mark) (Table 11, 10 μg/ml): 644 ± 33 ng/mL; GH release, second line of entry (no mark) (Table 11, 30 μg/ml): 529 ± 20 ng/mL; GH release, first line of entry (mark P + S) (Table 11, 30 μg/ml): 504 ± 20 ng/mL
N[C@H](COCc1ccccc1)C(=O)N1CCN(c2ccccc2)CC1 [D Ser(BZL)-N′-phenyl-N-piperazinamide, (R)-2-amino-3-(benzyloxy)-1-(4-phenylpiperazin-1-yl)propan-1-one]	–	719 ± 26	585 ± 10	435 ± 0	368 ± 2	–
N[C@H](Cc1c[nH]c2ccccc12)C(=O)N1CCC(c2ccccc2)CC1 [DTrp-4-phenylpiperdinamide, (R)-2-amino-3-(1H-indol-3-yl)-1-(4-phenylpiperidin-1-yl)propan-1-one]	–	344 ± 6	520 ± 61	486 ± 29	577 ± 24	GH release, second line of entry (no mark) (Table 10, 1 μg/ml): 1085 ± 1 ng/mL; GH release, first line of entry (mark P + S) (Table 10, 1 μg/ml): 815 ± 26 ng/mL; GH release, second line of entry (no mark) (Table 10, 3 μg/ml): 917 ± 4 ng/mL; GH release, first line of entry (mark P + S) (Table 10, 3 μg/ml): 390 ± 35 ng/mL

Now from value to compound, other results behind:

GH release, first line of entry (mark P + S) (Table 11, 10 μg/ml) [ng/mL]	GH release, second line of entry (no mark) (Table 10, 10 μg/ml) [ng/mL]	GH release, first line of entry (mark P + S) (Table 10, 10 μg/ml) [ng/mL]	GH release, second line of entry (no mark) (Table 10, 30 μg/ml) [ng/mL]	GH release, first line of entry (mark P + S) (Table 10, 30 μg/ml) [ng/mL]	SMILES	other results
245 ± 16	–	–	–	–	CC(=O)N[C@@H](COCc1ccccc1)C(=O)N[C@@H](CCCCN)C(=O)N[C@H](Cc1c[nH]c2ccccc12)C(=O)N1CCC(c2ccccc2)CC1 [(S)—N—((R)-3-(1H-indol-3-yl)-1-oxo-1-(4-phenylpiperidin-1-yl)propan-2-yl)-2-((S)-2-acetamido-3-(benzyloxy)propanamido)-6-aminohexanamide]	GH release, first line of entry (mark P + S) (Table 11, 1 μg/ml): 680 ± 13 ng/mL; GH release, first line of entry (mark P + S) (Table 11, 3 μg/ml): 489 ± 41 ng/mL
–	571 ± 32	388 ± 41	399 ± 24	273 ± 39	CC(=O)NCCCC[C@H](NC(=O)[C@@H](N)COCc1ccccc1)C(=O)N[C@@H](Cc1c[nH]c2ccccc12)C(=O)N1CCC(c2ccccc2)CC1 [(S)—N—((S)-3-(1H-indol-3-yl)-1-oxo-1-(4-phenylpiperidin-1-yl)propan-2-yl)-6-acetamido-2-((S)-2-amino-3-(benzyloxy)propanamido)hexanamide]	–
–	353 ± 10	369 ± 30	–	–	NCCCC[C@@H](NC(=O)[C@@H](CO)NC(=O)c1ccccc1)C(=O)N[C@@H](Cc1c[nH]c2ccccc12)C(=O)N1CCC(c2ccccc2)CC1 [N—((R)-1-((R)-1-((S)-3-(1H-indol-3-yl)-1-oxo-1-(4-phenylpiperidin-1-yl)propan-2-ylamino)-6-amino-1-oxohexan-2-ylamino)-3-hydroxy-1-oxopropan-2-yl)benzamide]	GH release, second line of entry (no mark) (Table 10, 3 μg/ml): 432 ± 25 ng/mL; GH release, first line of entry (mark P + S) (Table 10, 3 μg/ml): 393 ± 54 ng/mL
